Experimental data as given in patent US8192962B2, “Processes for detecting toxic substances” (Daikin Industries, Ltd., priority 2001, dated 2012).

Tested on: Transport facilitation protein genes
Assay: DNA chip mRNA expression in yeast, transport facilitation protein genes (Table 5)
Assay type: cell-based, Saccharomyces cerevisiae S288C
Description: Yeast (Saccharomyces cerevisiae S288C (α SUC2mal mel gap2 CUP1)) were incubated at 25° C. on YPD medium (yeast extract 1%, polypepton 2%, glucose 2%). One of toxic chemical substances was added to the cells at logarithmic growth phase, and the cells were further incubated for two hours. Cells were cultured without any chemical substance in the same condition, and were used as control. Concentrations of the chemical substances were defined to inhibit the growth of the yeast but not lead to death.
After completion of the incubation, the culture was centrifuged to collect the cells. To the cells, sodium acetate buffer (50 mM sodium acetate, 10 mM EDTA, 1% SDS) was added, and the mixture was shaken at 65° C. for five minutes, followed by returning to room temperature, and obtaining the supernatant, of which the procedures were repeated two times. To the supernatant, ½ amount of a solution of phenol/chloroform was added, and the mixture was centrifuged to give a supernatant, which was added with an equal amount of chloroform, and the mixture was centrifuged to give a supernatant. To the supernatant, an equal amount of isopropanol containing 0.3 M sodium acetate was added, and the mixture was allowed to stand at room temperature for 30 minutes, after which the mixture was centrifuged to give a sediment of the whole RNAs. Seventy % ethanol was added to the sediment, and the mixture was again centrifuged to give a sediment, which was then dried and dissolved in water. mRNA was isolated from the whole RNAs as followings. In view of the fact that a poly A chain is attached to the 3′ terminus of mRNA, a polynucleotide having a poly T structure which was immobilized on the surface of latex beads was used to trap the mRNA, and then the mRNA was washed and eluted with spine column (Oligotex-dT30<Super>mRNA Purification Kit, Takara). Reverse transcription of the mRNA was conducted with a reverse transcriptase (Super Script II Reverse Transcriptase; catalogue No. 18064-014, GibcoBRL) using fluorescence-labeled nucleotides to give cDNAs that were introduced with Cy3-dUTP or Cy5-dUTP during the reverse transcription.
The labeled cDNAs were dissolved in TE buffer (10mM Tris-HCl/1 mM EDTA, pH8.0), and the solution was dropped on the DNA chip containing the whole genes of yeast (DNA Chip Research Inc. Japan) so that the cDNAs were hybridized on the DNA chip at 65° C. for over 12 hours. The fluoresces intensity of the DNA chip was read with a scanner, and the ratio relative to the fluorescence intensity resulting from the absence of chemical substance was estimated as the following, which is shown in Tables 1 to 9: […]

Measured: The level of expressed mRNA in the presence of chemical substance/The level of expressed mRNA in the absence of chemical substance

manganese ethylenebis(dithiocarbamate) [(8)]
1.5: yeast gene YHL040C | yeast gene YHL047C | yeast gene YHR092C | yeast gene YJL034W | yeast gene YJL219W | yeast gene YNL259C | yeast gene YOR332W
1.3: yeast gene YPL134C
0.5: yeast gene YGR260W | yeast gene YLR378C | yeast gene YOR153W | yeast gene YPL036W
2.0: yeast gene YOL119C
1.2: yeast gene YHR094C | yeast gene YLR295C
1.6: yeast gene YHR026W | yeast gene YKL016C
0.7: yeast gene YGR281W | yeast gene YIL056W | yeast gene YJL212C | yeast gene YJR121W | yeast gene YLL028W | yeast gene YMR203W | yeast gene YNL055C
1.1: yeast gene YHL035C | yeast gene YMR011W | yeast gene YOL163W
1.0: yeast gene YKR039W | yeast gene YOL156W | yeast gene YOR035C | yeast gene YPR194C
0.9: yeast gene YHR175W | yeast gene YJR106W | yeast gene YLR081W | yeast gene YLR348C | yeast gene YNR072W | yeast gene YPL271W
0.6: yeast gene YGR224W | yeast gene YIL006W | yeast gene YOR273C | yeast gene YPR192W
0.8: yeast gene YIL022W | yeast gene YIL088C | yeast gene YJR077C | yeast gene YKL146W | yeast gene YKR067W | yeast gene YMR162C | yeast gene YOR130C | yeast gene YOR316C | yeast gene YOR348C
